The numbers were not newly measured in patent US6680306B2, “Method for enhancing the effectiveness of cancer therapies” (GlycoGenesys, Inc., priority 2001, dated 2004), which cites them from elsewhere.

Data set [1] deals with BT549 cells. Conditions: BT549 human breast epithelial cell line that does not express detectable levels of galectin-3.
Data set [2] concerns galectin-3 transfected BT549 cells. Conditions: galectin-3 transfected BT549 cells treated with genistein.

With `O=c1c(-c2ccc(O)cc2)coc2cc(O)cc(O)c12` [genistein], the apoptosis induction result in data set [1] was “effectively induces apoptosis, without detectable cell cycle arrest”. In data set [2], the “cell cycle arrest / apoptosis induction” value was “cell cycle arrest at the G(2)/M phase takes place without apoptosis induction”.
